Seven compounds from patent US6087355A, “Cephalosporin antibiotics” (Microcide Pharmaceuticals, Inc., priority 1996, dated 2000) can be followed below.

As usually defined, the ED50 is the midpoint of the dose-response relation.

Experiment [1] has as its system S. aureus Col8A(Meth^S)(lac^-). The experiment can be described thus: In vitro MIC, agar dilution. To be noted: for MIC: Staphylococcus aureus, S. aureus Col8A(Meth^S)(lac^-), read-out: minimum inhibitory concentration (MIC). Type of experiment: cell-based. An outline of the steps: (§1)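 Two-fold dilutions (128 to ≤0.25 μg/mL, in duplicate) were poured into Mueller-Hinton agar. Log-phase broth cultures were spot-inoculated at about 10^4 cfu per spot and incubated 35-36°C for 16-20 hours; the MIC was the lowest concentration inhibiting growth. Col is a high-level PBP2a producer; Col 8A is its isogenic PBP2a-lacking partner.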

The test system of experiment [2] is S. aureus Col(Meth^R)(lac^-). The experiment can be described thus: In vitro MIC, agar dilution. It counts as cell-based. Particulars: Staphylococcus aureus, read-out: minimum inhibitory concentration (MIC). An outline of the steps:
as §1
On the technique in general: Agar dilution tests growth on a series of plates holding different concentrations.

Experiment [3] has as its system S. aureus ATCC 13709(Meth^S). The experiment can be described thus: In vitro MIC, agar dilution. Particulars: Staphylococcus aureus, ATCC13709, S. aureus ATCC 13709(Meth^S); read-out: minimum inhibitory concentration (MIC). It counts as cell-based. In short, it runs like this:
(§2)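 Strains were spotted at roughly 10^4 cfu onto drug-containing Mueller-Hinton agar. MIC was read as the lowest inhibitory concentration after overnight incubation at 35-36 °C.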

The subject of experiment [4] is S. aureus ATCC 33593(Meth^R). Description: In vitro MIC, agar dilution. Particulars: Staphylococcus aureus, ATCC33593, read-out: minimum inhibitory concentration (MIC). It counts as cell-based. An outline of the steps:
as §2

The subject of experiment [5] is E. coli ATCC 25992. Description: In vitro MIC, agar dilution. It counts as cell-based. To be noted: Escherichia coli, ATCC25992, read-out: minimum inhibitory concentration (MIC). In short, it runs like this:
as §2

The test system of experiment [6] is S. haemolyticus 05(Meth^R). The experiment can be described thus: In vitro MIC, agar dilution. It counts as cell-based. To be noted: Staphylococcus haemolyticus, read-out: minimum inhibitory concentration (MIC). In short, it runs like this:
as §2

Experiment [7] concerns S. aureus 76(Meth^R)(lac^+). The experiment can be described thus: In vitro MIC, agar dilution. Particulars: Staphylococcus aureus, read-out: minimum inhibitory concentration (MIC). It counts as cell-based. An outline of the steps: as §2
In experiment [8] the test system is P. aeruginosa ATCC 27853. The experiment can be described thus: In vitro MIC, agar dilution. It counts as cell-based. Particulars: Pseudomonas aeruginosa, ATCC27853, read-out: minimum inhibitory concentration (MIC). In short, it runs like this: as §2
Experiment [9] deals with S. aureus Spain #356(Meth^R). Description: In vitro MIC, agar dilution. Particulars: Staphylococcus aureus, read-out: minimum inhibitory concentration (MIC). It counts as cell-based. An outline of the steps:
as §2

Experiment [10] has as its system S. aureus PC1(Meth^S)(lac^+). Description: In vitro MIC, agar dilution. Particulars: Staphylococcus aureus, read-out: minimum inhibitory concentration (MIC). Type of experiment: cell-based. An outline of the steps: as §2
Experiment [11] deals with E. faecium ATCC 35667. Description: In vitro MIC, agar dilution. It counts as cell-based. To be noted: Enterococcus faecium, ATCC35667, read-out: minimum inhibitory concentration (MIC). An outline of the steps:
as §2

The test system of experiment [12] is E. faecium A491(Amp^R). Description: In vitro MIC, agar dilution. It counts as cell-based. Particulars: Enterococcus faecium, read-out: minimum inhibitory concentration (MIC). In short, it runs like this: as §2
Experiment [13] has as its system E. faecalis ATCC 29212. The experiment can be described thus: In vitro MIC, agar dilution. Type of experiment: cell-based. Particulars: Enterococcus faecalis, ATCC29212, read-out: minimum inhibitory concentration (MIC). An outline of the steps:
as §2

Experiment [14] has as its system S. aureus ATCC 29213. The experiment can be described thus: In vitro MIC, agar dilution. It counts as cell-based. To be noted: Staphylococcus aureus, ATCC29213, read-out: minimum inhibitory concentration (MIC). An outline of the steps: as §2
For experiment [15], the system named is E. faecium VanA(Van^R). Description: In vitro MIC, agar dilution. It counts as cell-based. To be noted: Enterococcus faecium, read-out: minimum inhibitory concentration (MIC). An outline of the steps:
as §2

The subject of experiment [16] is S. aureus strain ATCC 13709 (methicillin-susceptible). Description: Murine model for lethal bacteremic peritonitis. It counts as in vivo, female Swiss-Webster mice. Particulars: Staphylococcus aureus, ATCC13709, SC, 72 h; for responders at 0.3125 mg/kg / responders at 0.625 mg/kg / responders at 2.5 mg/kg / responders at 5 mg/kg: read-out: Survivors; for responders at 1.25 mg/kg: read-out: Survivors (converted); for ED50: two equal doses, IP challenge, read-out: ED50. An outline of the steps: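 Female Swiss-Webster mice were challenged IP with an LD100 inoculum in 7% hog gastric mucin, then given test drug subcutaneously in twofold increments (0.01–512 mg/kg) as two equal doses at challenge and 2 h later, 10 mice per group. Survival was scored at 72 h; PD50 (total mg/kg) was derived by probit.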

The test system of experiment [17] is E. faecalis VanB(Van^R). Description: In vitro MIC, agar dilution. It counts as cell-based. Particulars: Enterococcus faecalis, read-out: minimum inhibitory concentration (MIC). An outline of the steps:
as §2

Counter-ions that a name gives are not always drawn.

As to `NCCCCCOCc1cnccc1SC1=C(C(=O)O)N2C(=O)[C@@H](NC(=O)/C(=N\O)c3nc(N)sc3Cl)[C@H]2SC1` [Cmpd 44, (7R)-7-[(Z)-2-(2-amino-5-chlorothiazol-4-yl)-2-(hydroxyimino)acetamido]-3-(3-(5-aminopentyloxymethyl)pyrid-4-ylthio)-3-cephem-4-carboxylate, trifluoroacetic acid salt], the MIC in experiment [1] was 0.5 µg/mL; in experiment [2], 4 µg/mL; in experiment [3] it was 2 µg/mL; in [4], 4 µg/mL; in [5], 8 µg/mL; in experiment [6], 8 µg/mL. The MIC was 4 µg/mL in experiment [7]; > 32 µg/mL in experiment [8]; 4 µg/mL in experiment [9]; 2 µg/mL in experiment [10]; 4 µg/mL in experiment [11]; 16 µg/mL in experiment [12]. For the same compound, the MIC in experiment [13] was found to be 0.13 µg/mL; in experiment [14] it was 0.5 µg/mL; in experiment [15] it was 2 µg/mL.

Turning to `CO/N=C(\C(=O)N[C@@H]1C(=O)N2C(C(=O)O)=C(COC(C)=O)CS[C@H]12)c1csc(N)n1` [Cefotaxime, cefotaxime, reference compound], the “responsiveness of S. aureus Col 8A strain” value in [1] (in words) was “highly responsive”.

`NCCCOCc1cnccc1SC1=C(C(=O)O)N2C(=O)[C@@H](NC(=O)/C(=N\O)c3nc(N)sc3Cl)[C@H]2SC1` [Cmpd 47, (7R)-7-[(Z)-2-(2-amino-5-chlorothiazol-4-yl)-2-(hydroxyimino)acetamido]-3-(3-(3-aminopropyloxymethyl)pyrid-4-ylthio)-3-cephem-4-carboxylate, trifluoroacetic acid salt]: the MIC came out at 0.5 µg/mL in experiment [1]; 2 µg/mL in experiment [2]; 2 µg/mL in experiment [3]; 2 µg/mL in [4]; 8 µg/mL in [5]; 4 µg/mL in experiment [6]. In addition, the MIC in experiment [7] is 2 µg/mL; in experiment [8], > 32 µg/mL; in experiment [9], 2 µg/mL; in experiment [10], 2 µg/mL; in experiment [11], 2 µg/mL; in experiment [12], 16 µg/mL. Moreover, the MIC in experiment [13] is 0.13 µg/mL; in experiment [14], 1 µg/mL; in experiment [15], 2 µg/mL.

On to `NCCSCc1cnccc1SC1=C(C(=O)O)N2C(=O)[C@@H](NC(=O)/C(=N\OCCF)c3nc(N)sc3Cl)[C@H]2SC1.O=C(O)C(F)(F)F` [Cmpd 33, (7R)-7-[(Z)-2-(2-amino-5-chlorothiazol-4-yl)-2-(2-fluoroethoxyimino)acetamido]-3-(3-aminoethylthiomethylpyrid-4-ylthio)-3-cephem-4-carboxylate, trifluoroacetic acid salt], for which the responders at 0.3125 mg/kg in experiment [16] was determined as 0%. Besides, the responders at 0.625 mg/kg in experiment [16] worked out at 40%. In addition, in experiment [16], the responders at 1.25 mg/kg is 50%. Also, the responders at 2.5 mg/kg in experiment [16] came out at 90%. Further, the responders at 5 mg/kg in experiment [16] turned out to be 80%. Also, in experiment [16], the 50% effective dose (ED50) turned out to be 1.19 mg/kg. In addition, the MIC is 1 µg/mL in experiment [2]; 0.13 µg/mL in experiment [3]; 2 µg/mL in experiment [4]; 1 µg/mL in [5]; 2 µg/mL in [6]; 1 µg/mL in [7]. Besides, the MIC stood at 32 µg/mL in experiment [8]; 1 µg/mL in experiment [9]; 0.25 µg/mL in experiment [10]; 0.5 µg/mL in experiment [11]; 8 µg/mL in [12]; 0.13 µg/mL in experiment [13]. Further, the figures for the MIC in [14], in experiment [17] and in [15] were 0.25 µg/mL, 0.13 µg/mL and 2 µg/mL, respectively.

For `NCCSCc1cnccc1SC1=C(C(=O)O)N2C(=O)[C@@H](NC(=O)/C(=N\O)c3ccccc3)[C@H]2SC1.O=C(O)C(F)(F)F` [Cmpd 26, (7R)-7-[(Z)-2-phenyl-2-(hydroxyimino)acetamido]-3-(3-aminoethylthiomethylpyrid-4-ylthio)-3-cephem-4-carboxylate, trifluoroacetic acid salt], the responders at 0.3125 mg/kg in [16] was determined as 10%. In experiment [16], the responders at 0.625 mg/kg was determined as 50%. For the same compound, in experiment [16], the responders at 1.25 mg/kg is 50%. In experiment [16], the responders at 2.5 mg/kg was determined as 70%. In addition, the responders at 5 mg/kg in [16] worked out at 90%. In addition, in experiment [16], the 50% effective dose (ED50) came out at 1.06 mg/kg. For the same compound, the MIC was 0.5 µg/mL in experiment [2]; ≤ 0.06 µg/mL in experiment [3]; 1 µg/mL in experiment [4]; > 32 µg/mL in experiment [5]; 2 µg/mL in [6]; 1 µg/mL in [7]. Besides, the MIC is > 32 µg/mL in experiment [8]; 1 µg/mL in experiment [9]; 0.13 µg/mL in experiment [10]; 0.25 µg/mL in experiment [11]; 8 µg/mL in [12]; ≤ 0.06 µg/mL in [13]. In addition, the MIC in [14] amounted to 0.13 µg/mL; in experiment [17], 0.13 µg/mL; in [15], 0.5 µg/mL.

Consider `CNCCNCCSCc1cnccc1SC1=C(C(=O)O)N2C(=O)[C@@H](NC(=O)/C(=N\O)c3nc(N)sc3Cl)[C@H]2SC1` [Cmpd 57, (7R)-7-[(Z)-2-(2-amino-5-chlorothiazol-4-yl)-2-(hydroxyimino)acetamido]-3-(3-(N-methylaminoethylaminoethylthiomethyl)pyrid-4-ylthio)-3-cephem-4-carboxylate, trifluoroacetic acid salt], for which, in [16], the responders at 0.3125 mg/kg turned out to be 40%. Moreover, the responders at 0.625 mg/kg in experiment [16] was 40%. Moreover, the responders at 1.25 mg/kg in experiment [16] was 40%. For the same compound, the responders at 2.5 mg/kg in [16] turned out to be 50%. Besides, in experiment [16], the responders at 5 mg/kg was 90%. Also, the median effective dose (ED50) in experiment [16] turned out to be 1.08 mg/kg. For the same compound, the MIC in [2] turned out to be 4 µg/mL; in experiment [3], 0.5 µg/mL; in experiment [4] it was 4 µg/mL; in experiment [5] it was 4 µg/mL; in experiment [6], 8 µg/mL; in experiment [7], 4 µg/mL. Also, the MIC in [8] was > 32 µg/mL; in experiment [9], 4 µg/mL; in [10] it was 1 µg/mL; in experiment [11] it was 1 µg/mL; in experiment [12], 16 µg/mL; in [13], 0.13 µg/mL. For the same compound, the MIC in experiment [14] was determined as 1 µg/mL; in experiment [17] it was 4 µg/mL; in experiment [15] it was 2 µg/mL.

For the compound `NCCCCOCc1cnccc1SC1=C(C(=O)O)N2C(=O)[C@@H](NC(=O)/C(=N\O)c3nc(N)sc3Cl)[C@H]2SC1` [Cmpd 46, (7R)-7-[(Z)-2-(2-amino-5-chlorothiazol-4-yl)-2-(hydroxyimino)acetamido]-3-(3-(4-aminobutyloxymethyl)pyrid-4-ylthio)-3-cephem-4-carboxylate, trifluoroacetic acid salt], the MIC was determined as 0.5 µg/mL in experiment [1]; 2 µg/mL in experiment [2]; 2 µg/mL in experiment [3]; 2 µg/mL in experiment [4]; 8 µg/mL in experiment [5]; 8 µg/mL in experiment [6]. Besides, the MIC was 4 µg/mL in [7]; > 32 µg/mL in experiment [8]; 4 µg/mL in experiment [9]; 2 µg/mL in [10]; 2 µg/mL in experiment [11]; 16 µg/mL in experiment [12]. In addition, the MIC in experiment [13] is 0.13 µg/mL; in experiment [14], 1 µg/mL; in experiment [15] it was 2 µg/mL.
